Results taken from ChEMBL document CHEMBL1201862, “PubChem BioAssay data set” (2004).
Each block holds one compound with its values, some of them ahead of it. Calls of active or inactive are those of the source.

Experiments:
[1] = target: T1, E3 ubiquitin-protein ligase XIAP (Homo sapiens, UniProt P98170); test: Counter Screen using XIAP-Bir3 for Chemical Antagonists of Bir1/2 domains of IAP-family anti-apoptotic proteins. [Related pubchem assays (depositor defined):AID1018, AID1449, AID1514, AID1638, AID1749, AID1750, AID488957, AID488963]
[2] = target: T1, E3 ubiquitin-protein ligase XIAP; test: small molecules displacing peptide from XIAP – biochemical, IAP family, fluorescence polarization (AID 1018); format: functional
Beta-galactosidase = Beta-galactosidase (Escherichia coli, UniProt Q8VNN2); test: Dose response counterscreen for EBI2 assay utilizing the enzyme, b-galactosidase.; format: functional
[3] = target: T2, Voltage-gated N-type calcium channel alpha-1B subunit/Amyloid beta A4 precursor protein-binding family A member 1 (Homo sapiens, UniProt Q00975+Q02410); format: protein assay
[4] = target: T2, Voltage-gated N-type calcium channel alpha-1B subunit/Amyloid beta A4 precursor protein-binding family A member 1; format: protein assay; remark: listed apart in the source
[5] = target: Induced myeloid leukemia cell differentiation protein Mcl-1 (Homo sapiens, UniProt Q07820); format: functional
Genome polyprotein = Genome polyprotein (dengue virus type 2, UniProt P29990); test: flavivirus cap methylation enzyme inhibition – biochemical, confirmation dose response, primary screen (AID 588689); format: functional
[6] = target: T3, Carboxy-terminal domain RNA polymerase II polypeptide A small phosphatase 1 (Homo sapiens, UniProt Q9GZU7); test: CTDSP1 inhibitors, concentration-response, biochemical, absorbance readout, ultra-high-throughput screen actives (AID 540297); format: functional
T3 sequence (Q9GZU7 whole entry): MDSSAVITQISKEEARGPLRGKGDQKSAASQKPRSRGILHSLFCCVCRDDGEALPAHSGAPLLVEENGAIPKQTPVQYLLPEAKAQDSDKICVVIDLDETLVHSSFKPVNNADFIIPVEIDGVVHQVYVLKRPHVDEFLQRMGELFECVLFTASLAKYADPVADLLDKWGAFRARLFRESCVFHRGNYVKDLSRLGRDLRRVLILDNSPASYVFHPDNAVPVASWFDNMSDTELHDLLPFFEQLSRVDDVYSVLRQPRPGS

[7] = target: DNA (cytosine-5)-methyltransferase 1 (Homo sapiens, UniProt P26358); test: inhibition of DNA methylation by DNMT1 – biochemical, fluorescent molecular beacon, confirmation (AID 602386); format: functional
Exodeoxyribonuclease V = target: T4, Exodeoxyribonuclease V (Escherichia coli (strain K12), UniProt P04993+P07648+P08394); test: RecBCD inhibition via phage-restricted bacterial growth – absorbance, V66 E. coli, mutant T4 phage, counter-screen for AddAB inhibitor project, dose response (AID 492957); format: functional, cell-based, Escherichia coli str. K-12 substr. MG1655
T4 sequence (P04993 whole entry): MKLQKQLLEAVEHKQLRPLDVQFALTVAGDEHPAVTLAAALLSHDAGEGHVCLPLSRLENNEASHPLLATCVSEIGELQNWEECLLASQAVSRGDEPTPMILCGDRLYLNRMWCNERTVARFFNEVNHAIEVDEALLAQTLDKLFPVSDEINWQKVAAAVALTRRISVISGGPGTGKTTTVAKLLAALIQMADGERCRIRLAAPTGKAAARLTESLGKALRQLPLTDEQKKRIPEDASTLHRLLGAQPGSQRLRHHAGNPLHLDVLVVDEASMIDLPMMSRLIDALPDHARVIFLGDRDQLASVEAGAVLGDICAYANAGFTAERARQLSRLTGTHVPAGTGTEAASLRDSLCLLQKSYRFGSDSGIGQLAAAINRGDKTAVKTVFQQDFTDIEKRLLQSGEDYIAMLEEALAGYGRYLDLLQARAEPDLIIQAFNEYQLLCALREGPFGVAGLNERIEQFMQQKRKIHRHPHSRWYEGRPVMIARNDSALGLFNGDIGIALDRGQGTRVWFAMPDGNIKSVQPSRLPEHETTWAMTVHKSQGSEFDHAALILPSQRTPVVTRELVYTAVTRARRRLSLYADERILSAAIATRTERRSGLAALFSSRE
T4 sequence (P07648 whole entry): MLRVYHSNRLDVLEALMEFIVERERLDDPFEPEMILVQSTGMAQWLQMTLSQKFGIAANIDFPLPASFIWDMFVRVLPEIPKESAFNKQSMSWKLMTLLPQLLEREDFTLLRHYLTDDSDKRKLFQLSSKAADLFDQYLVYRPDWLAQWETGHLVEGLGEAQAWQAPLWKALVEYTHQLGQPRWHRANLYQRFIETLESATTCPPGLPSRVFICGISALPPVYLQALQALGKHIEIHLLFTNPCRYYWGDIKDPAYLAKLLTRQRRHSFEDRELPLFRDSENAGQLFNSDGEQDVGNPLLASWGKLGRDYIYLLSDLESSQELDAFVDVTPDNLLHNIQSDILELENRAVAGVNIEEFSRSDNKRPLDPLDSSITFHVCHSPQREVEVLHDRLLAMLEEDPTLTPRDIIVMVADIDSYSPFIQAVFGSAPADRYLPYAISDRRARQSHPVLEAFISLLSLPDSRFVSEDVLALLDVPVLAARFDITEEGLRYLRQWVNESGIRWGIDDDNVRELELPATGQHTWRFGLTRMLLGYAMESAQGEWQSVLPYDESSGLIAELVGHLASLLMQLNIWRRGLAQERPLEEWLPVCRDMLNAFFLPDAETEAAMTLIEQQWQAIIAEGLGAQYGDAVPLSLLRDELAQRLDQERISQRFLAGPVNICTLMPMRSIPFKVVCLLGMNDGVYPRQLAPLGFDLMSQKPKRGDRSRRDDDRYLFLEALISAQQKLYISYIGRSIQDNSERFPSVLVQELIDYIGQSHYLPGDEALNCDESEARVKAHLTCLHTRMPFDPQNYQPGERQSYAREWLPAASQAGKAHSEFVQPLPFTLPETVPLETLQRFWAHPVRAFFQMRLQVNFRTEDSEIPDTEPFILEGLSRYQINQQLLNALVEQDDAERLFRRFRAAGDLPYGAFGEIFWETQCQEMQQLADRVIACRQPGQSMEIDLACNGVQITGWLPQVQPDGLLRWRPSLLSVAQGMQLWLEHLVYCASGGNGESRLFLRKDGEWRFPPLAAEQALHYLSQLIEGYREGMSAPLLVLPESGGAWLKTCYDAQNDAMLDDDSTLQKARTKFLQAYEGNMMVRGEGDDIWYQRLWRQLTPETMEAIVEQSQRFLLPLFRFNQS
T4 sequence (P08394 whole entry): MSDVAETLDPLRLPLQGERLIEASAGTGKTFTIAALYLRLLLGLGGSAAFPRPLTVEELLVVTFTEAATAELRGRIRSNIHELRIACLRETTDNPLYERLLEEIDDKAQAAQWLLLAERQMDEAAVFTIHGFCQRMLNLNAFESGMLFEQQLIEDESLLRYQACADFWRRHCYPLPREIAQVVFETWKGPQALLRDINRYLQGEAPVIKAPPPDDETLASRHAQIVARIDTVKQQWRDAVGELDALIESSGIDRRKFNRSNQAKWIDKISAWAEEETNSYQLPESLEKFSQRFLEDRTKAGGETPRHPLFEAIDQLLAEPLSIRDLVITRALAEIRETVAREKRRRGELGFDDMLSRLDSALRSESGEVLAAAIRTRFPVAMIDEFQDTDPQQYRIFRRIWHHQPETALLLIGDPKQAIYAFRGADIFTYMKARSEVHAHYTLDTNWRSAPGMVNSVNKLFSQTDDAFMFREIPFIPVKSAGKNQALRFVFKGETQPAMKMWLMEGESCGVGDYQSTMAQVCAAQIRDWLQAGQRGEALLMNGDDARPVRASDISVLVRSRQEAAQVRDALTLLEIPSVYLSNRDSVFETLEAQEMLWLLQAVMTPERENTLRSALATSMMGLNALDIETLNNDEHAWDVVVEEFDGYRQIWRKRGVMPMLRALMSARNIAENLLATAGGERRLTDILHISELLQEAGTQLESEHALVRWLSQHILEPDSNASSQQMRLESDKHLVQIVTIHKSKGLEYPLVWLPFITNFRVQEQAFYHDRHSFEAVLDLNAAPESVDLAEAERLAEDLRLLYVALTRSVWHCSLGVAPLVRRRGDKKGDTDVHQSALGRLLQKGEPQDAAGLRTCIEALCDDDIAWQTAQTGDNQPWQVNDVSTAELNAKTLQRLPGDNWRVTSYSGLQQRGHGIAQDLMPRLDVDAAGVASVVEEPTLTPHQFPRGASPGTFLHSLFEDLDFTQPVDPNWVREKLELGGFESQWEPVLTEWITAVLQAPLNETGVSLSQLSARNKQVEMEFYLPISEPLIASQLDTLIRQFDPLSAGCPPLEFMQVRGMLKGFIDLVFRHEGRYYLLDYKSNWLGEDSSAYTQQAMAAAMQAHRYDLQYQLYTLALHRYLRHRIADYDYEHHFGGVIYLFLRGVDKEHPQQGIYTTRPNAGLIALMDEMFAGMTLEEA

[8] = Counterscreen for AddAB inhibitors: absorbance-based bacterial cell-based high throughput dose response assay for inhibitors of bacterial viability. [Related pubchem assays (depositor defined):AID435030, AID449728, AID449731, AID488942, AID488955, AID488956]; format: functional

T1 sequence (P98170 whole entry): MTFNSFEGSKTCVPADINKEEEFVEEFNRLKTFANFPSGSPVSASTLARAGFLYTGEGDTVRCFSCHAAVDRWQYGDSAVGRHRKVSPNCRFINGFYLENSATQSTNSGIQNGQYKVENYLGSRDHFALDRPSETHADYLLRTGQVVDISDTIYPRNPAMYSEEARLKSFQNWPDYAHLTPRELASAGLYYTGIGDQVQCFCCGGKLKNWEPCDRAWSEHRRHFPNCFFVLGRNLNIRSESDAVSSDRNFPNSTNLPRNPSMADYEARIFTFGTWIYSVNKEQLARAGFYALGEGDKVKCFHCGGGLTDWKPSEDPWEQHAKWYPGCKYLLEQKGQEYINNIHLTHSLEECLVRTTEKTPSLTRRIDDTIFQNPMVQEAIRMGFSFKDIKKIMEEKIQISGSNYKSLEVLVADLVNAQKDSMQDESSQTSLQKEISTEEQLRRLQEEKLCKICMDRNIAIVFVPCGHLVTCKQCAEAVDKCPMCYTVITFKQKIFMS
T2 sequence (Q00975 whole entry): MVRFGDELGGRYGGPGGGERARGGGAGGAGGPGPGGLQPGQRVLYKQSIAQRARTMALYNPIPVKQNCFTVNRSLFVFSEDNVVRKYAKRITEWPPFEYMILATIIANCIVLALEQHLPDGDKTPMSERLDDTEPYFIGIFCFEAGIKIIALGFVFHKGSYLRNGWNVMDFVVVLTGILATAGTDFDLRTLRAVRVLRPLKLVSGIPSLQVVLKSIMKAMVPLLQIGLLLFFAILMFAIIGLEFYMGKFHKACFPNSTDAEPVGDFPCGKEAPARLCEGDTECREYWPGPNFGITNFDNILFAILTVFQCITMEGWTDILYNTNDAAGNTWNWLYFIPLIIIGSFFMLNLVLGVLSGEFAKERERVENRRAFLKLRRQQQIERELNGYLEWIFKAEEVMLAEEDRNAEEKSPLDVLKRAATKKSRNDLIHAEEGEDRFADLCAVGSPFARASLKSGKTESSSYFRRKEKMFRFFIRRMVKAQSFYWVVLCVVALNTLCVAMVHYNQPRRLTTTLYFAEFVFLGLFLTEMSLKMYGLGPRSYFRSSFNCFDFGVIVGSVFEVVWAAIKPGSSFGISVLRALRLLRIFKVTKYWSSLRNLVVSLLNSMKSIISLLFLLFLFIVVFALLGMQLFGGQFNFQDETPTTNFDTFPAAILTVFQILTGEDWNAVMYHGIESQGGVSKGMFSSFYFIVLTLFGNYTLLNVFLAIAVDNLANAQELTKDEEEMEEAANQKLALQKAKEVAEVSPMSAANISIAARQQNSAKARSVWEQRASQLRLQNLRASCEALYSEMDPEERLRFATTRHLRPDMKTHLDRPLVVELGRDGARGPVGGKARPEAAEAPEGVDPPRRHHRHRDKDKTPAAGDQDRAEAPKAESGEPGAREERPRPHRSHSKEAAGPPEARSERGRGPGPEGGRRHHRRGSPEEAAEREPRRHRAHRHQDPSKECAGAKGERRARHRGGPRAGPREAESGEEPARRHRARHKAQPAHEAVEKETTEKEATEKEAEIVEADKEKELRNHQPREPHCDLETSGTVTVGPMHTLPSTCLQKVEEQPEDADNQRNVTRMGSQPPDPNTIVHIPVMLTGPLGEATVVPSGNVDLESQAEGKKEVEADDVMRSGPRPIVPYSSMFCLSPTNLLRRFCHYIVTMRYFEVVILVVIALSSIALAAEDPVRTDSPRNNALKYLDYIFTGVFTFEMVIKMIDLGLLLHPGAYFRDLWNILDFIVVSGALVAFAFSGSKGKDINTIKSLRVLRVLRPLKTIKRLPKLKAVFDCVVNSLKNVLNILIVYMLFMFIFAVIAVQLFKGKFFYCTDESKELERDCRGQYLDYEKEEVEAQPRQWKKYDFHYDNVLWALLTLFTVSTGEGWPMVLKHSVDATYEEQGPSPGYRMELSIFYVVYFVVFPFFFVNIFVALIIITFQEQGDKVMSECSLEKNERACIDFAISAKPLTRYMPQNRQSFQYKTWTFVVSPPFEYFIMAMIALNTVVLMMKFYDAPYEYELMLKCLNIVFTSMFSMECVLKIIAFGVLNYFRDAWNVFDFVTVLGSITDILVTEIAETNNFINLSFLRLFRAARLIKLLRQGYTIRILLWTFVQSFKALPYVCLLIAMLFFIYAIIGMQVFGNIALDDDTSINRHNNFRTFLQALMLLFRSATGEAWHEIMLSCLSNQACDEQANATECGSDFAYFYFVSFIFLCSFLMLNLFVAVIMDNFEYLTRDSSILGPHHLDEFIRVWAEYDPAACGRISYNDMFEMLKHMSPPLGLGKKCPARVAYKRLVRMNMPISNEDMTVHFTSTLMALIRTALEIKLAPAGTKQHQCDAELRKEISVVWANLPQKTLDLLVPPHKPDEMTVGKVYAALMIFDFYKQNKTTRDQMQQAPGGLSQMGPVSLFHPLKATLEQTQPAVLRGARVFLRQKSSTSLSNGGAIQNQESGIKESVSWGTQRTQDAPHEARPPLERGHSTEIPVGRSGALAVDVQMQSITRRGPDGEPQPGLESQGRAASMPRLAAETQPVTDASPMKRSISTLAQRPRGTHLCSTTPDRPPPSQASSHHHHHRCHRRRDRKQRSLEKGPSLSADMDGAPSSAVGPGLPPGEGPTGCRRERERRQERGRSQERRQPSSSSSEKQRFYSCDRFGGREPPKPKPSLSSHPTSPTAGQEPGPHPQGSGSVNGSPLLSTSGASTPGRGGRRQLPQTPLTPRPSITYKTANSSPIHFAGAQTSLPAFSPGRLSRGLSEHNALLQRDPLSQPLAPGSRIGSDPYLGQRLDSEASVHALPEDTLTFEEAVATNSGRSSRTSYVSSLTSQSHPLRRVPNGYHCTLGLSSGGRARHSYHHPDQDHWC
T2 sequence (Q02410 whole entry): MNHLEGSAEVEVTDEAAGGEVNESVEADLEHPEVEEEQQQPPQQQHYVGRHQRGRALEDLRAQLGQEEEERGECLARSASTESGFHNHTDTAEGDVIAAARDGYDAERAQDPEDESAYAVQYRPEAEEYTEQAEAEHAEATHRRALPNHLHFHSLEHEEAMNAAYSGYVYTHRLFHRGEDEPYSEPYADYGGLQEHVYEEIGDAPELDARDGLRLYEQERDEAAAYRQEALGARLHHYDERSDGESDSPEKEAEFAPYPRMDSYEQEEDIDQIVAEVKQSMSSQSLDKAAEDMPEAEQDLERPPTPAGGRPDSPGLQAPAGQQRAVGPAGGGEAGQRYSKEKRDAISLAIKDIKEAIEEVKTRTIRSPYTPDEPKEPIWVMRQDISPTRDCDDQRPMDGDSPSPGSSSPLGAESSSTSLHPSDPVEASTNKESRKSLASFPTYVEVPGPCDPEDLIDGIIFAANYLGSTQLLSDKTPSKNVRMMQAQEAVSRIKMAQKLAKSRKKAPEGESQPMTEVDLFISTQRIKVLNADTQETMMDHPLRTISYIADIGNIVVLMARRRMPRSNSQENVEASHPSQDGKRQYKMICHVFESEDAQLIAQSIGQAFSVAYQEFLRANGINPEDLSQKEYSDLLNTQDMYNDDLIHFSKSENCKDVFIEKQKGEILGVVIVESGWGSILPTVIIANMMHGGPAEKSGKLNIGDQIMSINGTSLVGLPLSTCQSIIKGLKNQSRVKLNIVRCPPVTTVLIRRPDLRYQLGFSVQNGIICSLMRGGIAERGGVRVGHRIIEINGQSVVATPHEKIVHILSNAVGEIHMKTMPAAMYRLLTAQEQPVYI
Induced myeloid leukemia cell differentiation protein Mcl-1, sequence (Q07820 whole entry): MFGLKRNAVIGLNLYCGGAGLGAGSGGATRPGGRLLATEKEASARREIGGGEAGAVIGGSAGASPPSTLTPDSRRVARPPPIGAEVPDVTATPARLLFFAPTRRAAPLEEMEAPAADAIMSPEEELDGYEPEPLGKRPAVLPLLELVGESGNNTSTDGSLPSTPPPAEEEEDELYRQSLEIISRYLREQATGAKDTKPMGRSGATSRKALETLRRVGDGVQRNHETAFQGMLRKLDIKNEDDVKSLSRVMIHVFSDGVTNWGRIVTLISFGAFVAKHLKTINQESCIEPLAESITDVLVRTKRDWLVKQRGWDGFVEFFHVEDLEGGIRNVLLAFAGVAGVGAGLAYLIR
Genome polyprotein, sequence (P29990 2492-3391 limits assumed): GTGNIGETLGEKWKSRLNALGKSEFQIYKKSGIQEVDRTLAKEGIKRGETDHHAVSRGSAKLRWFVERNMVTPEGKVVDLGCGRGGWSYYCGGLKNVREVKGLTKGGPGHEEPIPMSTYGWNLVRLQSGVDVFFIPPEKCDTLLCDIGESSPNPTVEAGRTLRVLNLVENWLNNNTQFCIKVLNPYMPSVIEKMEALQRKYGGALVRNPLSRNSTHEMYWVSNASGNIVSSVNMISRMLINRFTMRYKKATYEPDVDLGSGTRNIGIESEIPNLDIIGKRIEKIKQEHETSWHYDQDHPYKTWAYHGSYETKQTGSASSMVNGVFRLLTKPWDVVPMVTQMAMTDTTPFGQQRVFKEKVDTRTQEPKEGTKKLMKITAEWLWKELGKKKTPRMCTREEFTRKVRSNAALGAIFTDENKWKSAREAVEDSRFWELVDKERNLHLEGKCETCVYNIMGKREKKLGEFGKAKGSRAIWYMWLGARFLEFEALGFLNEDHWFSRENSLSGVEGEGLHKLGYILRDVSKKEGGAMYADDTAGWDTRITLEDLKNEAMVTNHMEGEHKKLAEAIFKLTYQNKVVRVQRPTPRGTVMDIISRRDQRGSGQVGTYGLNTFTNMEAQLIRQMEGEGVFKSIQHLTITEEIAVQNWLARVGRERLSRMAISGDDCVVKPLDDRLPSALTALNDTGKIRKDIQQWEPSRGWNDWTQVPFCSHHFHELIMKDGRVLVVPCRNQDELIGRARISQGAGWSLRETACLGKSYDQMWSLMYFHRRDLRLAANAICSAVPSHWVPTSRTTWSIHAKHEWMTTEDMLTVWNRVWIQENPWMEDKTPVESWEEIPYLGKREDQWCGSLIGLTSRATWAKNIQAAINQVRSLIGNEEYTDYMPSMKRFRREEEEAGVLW

- IC50 [1]: > 100 µM (inactive)
- IC50 [2]: > 100 µM (not active)
SMILES: Cc1c(Br)cccc1NC(=O)c1sccc1-n1cccc1

- IC50 [1]: > 100 µM (inactive)
- IC50 [2]: > 100 µM (not active)
- IC50 (Beta-galactosidase): > 80 µM (inactive)
SMILES: O=C(/C=C/c1ccc(Cl)cc1)N1CCN(c2ccc([N+](=O)[O-])c(N3CCOCC3)c2)CC1

SMILES: COc1ccc(-c2csc(NC(=O)CSc3nc(C)nc4sc(C(=O)O)c(C)c34)n2)cc1
- IC50 [3]: > 56.8 µM (not active)
- IC50 [4]: > 50 µM (inactive)
- IC50 [5]: 7.81 µM (active)
- IC50 (Genome polyprotein): 92.7 µM (active)
- IC50 [6]: 4.31 µM (active)
- IC50 [7]: 14.6 µM (active)

SMILES: O=C(c1ccc([N+](=O)[O-])o1)N1CCOCC1
- IC50 (Exodeoxyribonuclease V): 114 µM (inactive)
- IC50 [8]: > 39.5 µM (inactive)
